Tests used:
Type in all cases: in vivo, mouse
aged 3xTg-AD female mice = assay: BBB permeability: Evan's blue brain penetration; conditions: formamide extraction of whole brain
Excerpt: FIG. 15 is a graph showing blood brain barrier permeability was impaired in aged 3xTg-AD female mice but reversed with TP-064. […] Formamide extraction of Evan's blue infused-whole-brain was quantified. * p<0.05 compared to C57, #p<0.05 compared to 3xTg-AD, evaluated by one-way ANOVA with Tukey's post-hoc analysis.

nNOS = nNOS protein level in brain, capillary-phoresis; conditions: treated 3xTg-AD mice; control = 100%
Excerpt: (§1) Capillary-phoresis immunoassay via ProteinSimple®: Quantification of all protein targets was achieved using Simple Western analysis in a Jess™ apparatus per the manufacturer's protocol (ProteinSimple, Bio-techne, Minneapolis, MN). Protein was extracted from dissected tissue in an extraction buffer consisting of T-PER® Tissue Protein Extraction Reagent (Cat. No. 78510, Thermo Fischer Scientific, Waltham, MA) and Halt™ Protease Inhibitor Cocktail (Cat. No. 87785, Thermo Fischer Scientific, Waltham, MA). Following homogenization and centrifugation (10,000×g, 5 min, 4° C.), protein concentration was determined in tissue protein supernatant samples using DC Protein Assay (Cat. No. 5000112, Bio-Rad Laboratories, Hercules, California) according to manufacturer instructions. […] Antibody diluent (ProteinSimple, Bio-techne, Minneapolis, MN) was used for all antibody dilutions as follows: PRMT4 (1:50, RRID: AB_2068436), PRMT6 (1:100, Cell Signaling Technology cat. 14641), eNOS (1:200, RRID: AB_10850618), nNOS (1:100, RRID: AB_2152488), iNOS (1:100, RRID: AB_10000625), DDAH2 (1:50, RRID: AB_2640442) Antibodies were detected using HRP-conjugated secondary anti-rabbit, and -mouse. Relative protein levels were calculated by measuring the area under the peak of a chemiluminescent chromatogram and normalized to total capillary chemiluminescence for a given sample. […]

[1] = tested on: phosphorylated tau (pTau); assay: Phosphorylated tau level in brain, capillary-phoresis; conditions: treated 3xTg mice; controls = 100%
Excerpt: as §1

SMILES: CNCCN1CCC(c2cc(CN(C)C(=O)c3cccc(Oc4ccccc4)c3)ccn2)CC1 [TP-064, N-Methyl-N-((2-(1-(2-(methylamino)ethyl)piperidin-4-yl)pyridin-4-yl)methyl)-3-phenoxybenzamide]
- brain penetration of Evan's blue (BBB leakage) (aged 3xTg-AD female mice): lower brain penetration of Evan's blue
- nNOS level in cortical lysates (nNOS): 40.3%±2.88
- nNOS level in hippocampal lysates (nNOS): 133%±8.15
- pTau level in cortex [1]: 234%±8.33
- pTau level in hippocampus [1]: 307%±31.4
